Measured values from patent publication US12649727B2, “EFGR inhibitor, preparation method therefor and application thereof” (Abbisko Therapeutics Co., Ltd, priority 2020, dated 2026).

Experiments:
Format in all cases: cell-based
A431 (EGFR-WT) = test: Proliferation experiment, A431 cell line (CellTiter-Glo); conditions: Homo sapiens, A-431; A431 cells, cultured for 72 hrs with compound, CTG analysis
Protocol: [The procedure below names another cell line; the source lists this cell line under the same test.] (§1) Proliferation Experiment of Ba/F3 Cell Line
(§2) (I) Reagents and Materials
(§3) • Fetal bovine serum FBS (GBICO, Cat #10099-141); • CellTiter-Glo® luminescent cell viability assay kit (Promega, Cat #G7572); • Black transparent flat-bottom 96 well plate (Corning®, Cat #3603). (II) Instruments • SpectraMax multi-label microplate reader MD, 2104-0010A; • Carbon dioxide incubator, Thermo Scientific 3100 series; • Biological safety cabinet, Thermo Scientific, 1300 series model A2; • Inverted microscope, Olympus, CKX41SF; • Siemens refrigerator KK25E76TI. (III) Cell Lines and Culture Conditions
(§4) (IV) Experimental Procedures 1. Cell Culture and Inoculation: • (1) Cells in the logarithmic growth phase were harvested and counted using a […]. Cell viability was detected by Trypan Blue Dye Exclusion Method to ensure cell viability above 90%. • (2) The cell concentration was adjusted to reach a desired final density; 90 μL of cell suspension was added to the 96-well plate. • (3) The cells were incubated overnight in the 96-well plate at 37° C., 5% CO2 and at 95% humidity.
(§5) 2. T0 Reference Data: • (1) 10 μL PBS was added to each well of the TO plate containing the cells. • (2) The CTG reagent was thawed and the cell plate was equilibrated to room temperature for 30 min. • (3) An equal volume of CTG solution was added to each well. • (4) The cells were lysed by shaking on an orbital shaker for 5 min. • (5) The cell plate was left at room temperature for 20 min to stabilize the luminescence signal. • (6) The fluorescence signal values of TO were read. 3. Dilution and Addition of Compounds • (1) According to the compound information table, a corresponding volume of DMSO was added to the corresponding compound powder to prepare a 10 mM stock solution. • (2) A 1000-fold, 3.16-fold-diluted compound solution was prepared. • (3) The 1000× diluted compound solution was diluted 100-fold with PBS to prepare a 10-fold compound solution with a maximum concentration of […], including 9 concentrations, with 3.16-fold dilution, and 10 μL of the medicament solution was added to each well of the 96-well plate to seed the cells. Triplicate wells were set for each compound concentration, with a final concentration of DMSO being 0.1%. • (4) The cells were placed in the 96-well plate filled with the medicament at 37° C., 5% CO2 and at 95% humidity, and cultured for 72 hrs before CTG analysis. 4. Fluorescence Signal Reading • (1) The CTG reagent was thawed and the cell plate was equilibrated to room temperature for 30 min. • (2) An equal volume of CTG solution was added to each well. • (3) The cells were lysed by shaking on an orbital shaker for 5 min. • (4) The cell plate was left at room temperature for 20 min to stabilize the fluorescence signal. • (5) The fluorescence values were read. 5. Data Processing
(§6) Data were analyzed using GraphPad Prism 7.0 software and fitted data were regressed using non-linear S-curves to obtain dose-response curves from which IC50 values (in nM) were calculated.

[1] = molecular target: Ba/F3 EGFR-D770-N771ins_SVD (Homo sapiens, UniProt P00533, DUP768-770, cells depend on it); test: Proliferation experiment of Ba/F3 cell line, EGFR-D770-N771ins_SVD (CellTiter-Glo); conditions: cultured for 72 hrs with compound, CTG analysis, read-out: Ba/F3 EGFR-D770-N771ins_SVD IC50
Protocol: as §1, §2, §3, §4, §5, §6

[2] = molecular target: Ba/F3 EGFR-V769_D770insASV (Homo sapiens, UniProt P00533, DUP767-769, cells depend on it); test: Proliferation experiment of Ba/F3 cell line, EGFR-V769_D770insASV (CellTiter-Glo); conditions: cultured for 72 hrs with compound, CTG analysis, read-out: Ba/F3 EGFR-V769_D770insASV IC50
Protocol: as §1, §2, §3, §4, §5, §6

Ba/F3 EGFR-D770-N771ins_SVD, sequence (P00533 with tags, fused parts or gaps DUP768-770): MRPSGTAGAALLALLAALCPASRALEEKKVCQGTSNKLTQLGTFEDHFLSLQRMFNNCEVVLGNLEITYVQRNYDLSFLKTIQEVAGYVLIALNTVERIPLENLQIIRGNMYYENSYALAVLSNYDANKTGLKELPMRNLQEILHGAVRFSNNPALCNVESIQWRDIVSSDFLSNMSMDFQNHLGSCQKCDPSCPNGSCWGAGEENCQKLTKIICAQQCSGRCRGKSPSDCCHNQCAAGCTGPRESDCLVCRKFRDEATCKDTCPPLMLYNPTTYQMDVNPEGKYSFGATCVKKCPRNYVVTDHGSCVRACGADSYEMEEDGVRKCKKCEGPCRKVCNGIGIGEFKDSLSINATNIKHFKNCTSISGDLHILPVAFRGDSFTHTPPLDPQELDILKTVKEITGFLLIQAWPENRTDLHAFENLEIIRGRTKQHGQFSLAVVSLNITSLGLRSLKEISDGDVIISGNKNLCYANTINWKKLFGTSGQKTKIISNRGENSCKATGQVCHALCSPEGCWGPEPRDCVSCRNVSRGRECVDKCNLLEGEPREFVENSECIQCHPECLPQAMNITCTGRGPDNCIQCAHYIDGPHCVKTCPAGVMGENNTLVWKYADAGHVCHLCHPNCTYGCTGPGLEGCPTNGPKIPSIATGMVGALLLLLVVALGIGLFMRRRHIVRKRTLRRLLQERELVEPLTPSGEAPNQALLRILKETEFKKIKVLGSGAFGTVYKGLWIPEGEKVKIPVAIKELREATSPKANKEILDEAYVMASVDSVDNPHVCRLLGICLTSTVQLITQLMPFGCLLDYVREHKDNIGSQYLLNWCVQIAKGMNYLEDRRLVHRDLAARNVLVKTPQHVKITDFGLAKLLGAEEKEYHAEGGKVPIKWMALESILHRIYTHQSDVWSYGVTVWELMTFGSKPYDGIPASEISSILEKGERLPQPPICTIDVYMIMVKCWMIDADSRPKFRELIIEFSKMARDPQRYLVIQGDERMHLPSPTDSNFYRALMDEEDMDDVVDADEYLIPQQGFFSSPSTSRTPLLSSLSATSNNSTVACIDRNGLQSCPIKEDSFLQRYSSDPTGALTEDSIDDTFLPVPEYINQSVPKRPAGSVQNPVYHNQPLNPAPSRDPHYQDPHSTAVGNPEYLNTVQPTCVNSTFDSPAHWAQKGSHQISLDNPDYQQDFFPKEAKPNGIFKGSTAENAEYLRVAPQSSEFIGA
Ba/F3 EGFR-V769_D770insASV, sequence (P00533 with tags, fused parts or gaps DUP767-769): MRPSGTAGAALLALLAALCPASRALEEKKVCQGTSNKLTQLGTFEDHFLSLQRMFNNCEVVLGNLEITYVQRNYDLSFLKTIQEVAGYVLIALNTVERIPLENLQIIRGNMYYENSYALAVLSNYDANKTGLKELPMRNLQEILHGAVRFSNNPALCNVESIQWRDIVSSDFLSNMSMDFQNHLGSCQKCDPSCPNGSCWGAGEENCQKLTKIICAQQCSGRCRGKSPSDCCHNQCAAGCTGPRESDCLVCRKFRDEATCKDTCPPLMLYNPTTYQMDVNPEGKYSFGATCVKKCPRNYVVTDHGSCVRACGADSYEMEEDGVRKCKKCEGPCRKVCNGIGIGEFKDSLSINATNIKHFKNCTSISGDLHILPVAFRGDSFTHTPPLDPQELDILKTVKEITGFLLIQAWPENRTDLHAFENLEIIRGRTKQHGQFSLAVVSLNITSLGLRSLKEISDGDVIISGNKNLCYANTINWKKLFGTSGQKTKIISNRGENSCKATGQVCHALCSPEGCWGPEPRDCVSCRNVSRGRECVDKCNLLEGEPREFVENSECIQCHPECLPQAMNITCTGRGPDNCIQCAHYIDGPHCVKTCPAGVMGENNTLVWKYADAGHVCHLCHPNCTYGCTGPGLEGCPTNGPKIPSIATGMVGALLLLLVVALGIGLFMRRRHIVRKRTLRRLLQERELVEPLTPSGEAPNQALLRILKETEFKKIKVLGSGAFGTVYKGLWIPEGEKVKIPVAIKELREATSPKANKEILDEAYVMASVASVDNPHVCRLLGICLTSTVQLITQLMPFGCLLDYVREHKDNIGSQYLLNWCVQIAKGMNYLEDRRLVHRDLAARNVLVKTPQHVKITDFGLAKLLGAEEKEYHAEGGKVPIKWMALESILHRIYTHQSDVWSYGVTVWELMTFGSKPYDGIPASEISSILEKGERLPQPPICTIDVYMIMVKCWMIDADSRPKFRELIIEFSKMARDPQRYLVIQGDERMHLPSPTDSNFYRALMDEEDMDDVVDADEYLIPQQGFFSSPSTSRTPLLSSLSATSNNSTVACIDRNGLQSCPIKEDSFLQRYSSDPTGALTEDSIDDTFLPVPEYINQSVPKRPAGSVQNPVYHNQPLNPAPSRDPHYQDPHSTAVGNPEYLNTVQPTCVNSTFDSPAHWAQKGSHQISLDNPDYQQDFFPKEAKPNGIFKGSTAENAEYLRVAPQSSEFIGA

C=CC(=O)Nc1cc2c(Nc3cccc(-c4ccc(F)cc4F)c3)ncnc2cc1OCCCN1CCOCC1 [Example 1, N-(4-((2′,4′-difluoro-[1,1′-biphenyl]-3-yl)amino)-7-(3-morpholinopropoxy)quinazolin-6-yl)acrylamide]
IC50 (A431 (EGFR-WT)): 215 nM | GI50 [1]: 11.8 nM | GI50 [2]: 42.4 nM

C=CC(=O)Nc1cc2c(Nc3ccnc(-c4ccccc4F)c3)ncnc2cc1OC [Example 82, N-(4-((2-(2-fluorophenyl)pyridin-4-yl)amino)-7-methoxyquinazolin-6-yl)acrylamide]
IC50 (A431 (EGFR-WT)): 624 nM | GI50 [1]: 1.7 nM | GI50 [2]: 2.6 nM

C=CC(=O)Nc1cc2c(Nc3ccnc(-c4ccccc4F)c3)ncnc2cc1N1CCOCC1 [Example 94, N-(4-((2-(2-fluorophenyl)pyridin-4-yl)amino)-7-morpholinoquinazolin-6-yl)acrylamide]
IC50 (A431 (EGFR-WT)): 2330 nM | GI50 [1]: 1.4 nM | GI50 [2]: 1.9 nM

C=CC(=O)Nc1cc2c(Nc3cncc(-c4ccccc4F)c3)ncnc2cc1OCCCN1CCOCC1 [Example 58, N-(4-((5-(2-fluorophenyl)pyridin-3-yl)amino)-7-(3-morpholinopropoxy)quinazolin-6-yl)acrylamide]
IC50 (A431 (EGFR-WT)): 840 nM | GI50 [1]: 5.1 nM | GI50 [2]: 13.6 nM

C=CC(=O)Nc1cc2c(Nc3ccnc(-c4ccccc4F)c3)ncnc2cc1OCC [Example 83, N-(4-((2-(2-fluorophenyl)pyridin-4-yl)amino)-7-ethoxyquinazolin-6-yl)acrylamide]
IC50 (A431 (EGFR-WT)): 820 nM | GI50 [1]: 3.3 nM | GI50 [2]: 7.5 nM

C=CC(=O)Nc1cc2c(Nc3ccnc(-c4ccc(F)cc4F)c3)ncnc2cc1OCCN1CCOCC1 [Example 77, N-(4-((2-(2,4-difluorophenyl)pyridin-4-yl)amino)-7-(2-morpholinoethoxy)quinazolin-6-yl)acrylamide]
IC50 (A431 (EGFR-WT)): 317 nM | GI50 [1]: 1.6 nM | GI50 [2]: 4.4 nM

C=CC(=O)Nc1cc2c(Nc3cccc(-c4c(F)cccc4F)c3)ncnc2cc1OCCCN1CCOCC1 [Example 27, N-(4-((2′,6′-difluoro-[1,1′-biphenyl]-3-yl)amino)-7-(3-morpholinopropoxy)quinazolin-6-yl)acrylamide]
IC50 (A431 (EGFR-WT)): 204 nM | GI50 [1]: 15.2 nM | GI50 [2]: 44.3 nM

C=C(F)C(=O)Nc1cc2c(Nc3ccnc(-c4ccccc4F)c3)ncnc2cc1N1CCOCC1 [Example 95, 2-fluoro-N-(4-((2-(2-fluorophenyl)pyridin-4-yl)amino)-7-morpholinoquinazolin-6-yl)acrylamide]
IC50 (A431 (EGFR-WT)): 1820 nM | GI50 [1]: 3.3 nM | GI50 [2]: 8.3 nM

C=CC(=O)Nc1cc2c(Nc3ccnc(-c4ccc(F)cc4F)c3)ncnc2cc1O[C@@H]1CCN(C)C1 [Example 81, (R)-N-(4-((2-(2,4-difluorophenyl)pyridin-4-yl)amino)-7-((1-methylpyrrolidin-3-yl)oxy)quinazolin-6-yl)acrylamide]
IC50 (A431 (EGFR-WT)): 122 nM | GI50 [1]: 3.1 nM | GI50 [2]: 5.2 nM

C=CC(=O)Nc1cc2c(Nc3cccc(-c4ccc(F)cc4F)c3)ncnc2cc1OCCCN1CCN(C)CC1 [Example 7, N-(4-((2′,4′-difluoro-[1,1′-biphenyl]-3-yl)amino)-7-(3-(4-methylpiperazin-1-yl)propoxy)quinazolin-6-yl)acrylamide]
IC50 (A431 (EGFR-WT)): 238 nM | GI50 [1]: 25.2 nM | GI50 [2]: 28.4 nM

C=CC(=O)Nc1cc2c(Nc3cccc(-c4c(F)cccc4F)c3)ncnc2cc1OCCCN1CCN(C)CC1=O [Example 33, N-(4-((2′,6′-difluoro-[1,1′-biphenyl]-3-yl)amino)-7-(3-(4-methyl-2-oxopiperazin-1-yl)propoxy)quinazolin-6-yl)acrylamide]
IC50 (A431 (EGFR-WT)): 458 nM | GI50 [1]: 38.3 nM | GI50 [2]: 68.3 nM

C=C(F)C(=O)Nc1cc2c(Nc3ccnc(-c4ccccc4F)c3)ncnc2cc1OCC [Example 87, 2-fluoro-N-(4-((2-(2-fluorophenyl)pyridin-4-yl)amino)-7-ethoxyquinazolin-6-yl)acrylamide]
IC50 (A431 (EGFR-WT)): 487 nM | GI50 [1]: 4.1 nM | GI50 [2]: 10.7 nM

C=CC(=O)Nc1cc2c(Nc3ccnc(-c4ccccc4F)c3)ncnc2cc1OCCCN1CCN(CC)CC1 [Example 71, N-(7-(3-(4-ethylpiperazin-1-yl)propoxy)-4-((2-(2-fluorophenyl)pyridin-4-yl)amino)quinazolin-6-yl)acrylamide]
IC50 (A431 (EGFR-WT)): 9.3 nM | GI50 [1]: 1.9 nM | GI50 [2]: 3.1 nM

C=CC(=O)Nc1cc2c(Nc3ccnc(-c4ccccc4F)c3)ncnc2cc1O[C@@H]1CCN(CCO)C1 [Example 112, (R)—N-(4-((2-(2-fluorophenyl)pyridin-4-yl)amino)-7-((1-(2-hydroxyethyl)pyrrolidin-3-yl)oxy)quinazolin-6-yl)acrylamide]
IC50 (A431 (EGFR-WT)): 89.3 nM | GI50 [1]: 1.4 nM | GI50 [2]: 3.6 nM

C=CC(=O)Nc1cc2c(Nc3ccnc(-c4ccccc4F)c3)ncnc2cc1OCCCN1CCN(C)CC1 [Example 70, N-(4-((2-(2-fluorophenyl)pyridin-4-yl)amino)-7-(3-(4-methylpiperazin-1-yl)propoxy)quinazolin-6-yl)acrylamide]
IC50 (A431 (EGFR-WT)): 81 nM | GI50 [1]: 3.1 nM | GI50 [2]: 5 nM

C=CC(=O)Nc1cc2c(Nc3ccc(F)c(-c4ccccc4F)c3)ncnc2cc1OCCCN1CCOCC1 [Example 38, N-(4-((2′,6-difluoro-[1,1′-biphenyl]-3-yl)amino)-7-(3-morpholinopropoxy)quinazolin-6-yl)acrylamide]
IC50 (A431 (EGFR-WT)): 431 nM | GI50 [1]: 23.6 nM | GI50 [2]: 31.5 nM

C=C(F)C(=O)Nc1cc2c(Nc3ccnc(-c4ccccc4F)c3)ncnc2cc1OC [Example 86, 2-fluoro-N-(4-((2-(2-fluorophenyl)pyridin-4-yl)amino)-7-methoxyquinazolin-6-yl)acrylamide]
IC50 (A431 (EGFR-WT)): 316 nM | GI50 [1]: 3.3 nM | GI50 [2]: 5.1 nM

C=CC(=O)Nc1cc2c(Nc3ccnc(-c4ccccc4F)c3)ncnc2cc1F [Example 92, N-(7-fluoro-4-((2-(2-fluorophenyl)pyridin-4-yl)amino)quinazolin-6-yl)acrylamide]
IC50 (A431 (EGFR-WT)): 355 nM | GI50 [1]: 30.5 nM | GI50 [2]: 16.7 nM

C=CC(=O)Nc1cc2c(Nc3ccnc(-c4ccccc4F)c3)ncnc2cc1OCCCN1CCOCC1 [Example 69, N-(4-((2-(2-fluorophenyl)pyridin-4-yl)amino)-7-(3-morpholinopropoxy)quinazolin-6-yl)acrylamide]
IC50 (A431 (EGFR-WT)): 38.1 nM | GI50 [1]: 3.4 nM | GI50 [2]: 5 nM

C=CC(=O)Nc1cc2c(Nc3cc(-c4ccc(F)cc4F)ccc3F)ncnc2cc1OCCCN1CCOCC1 [Example 11, N-(7-(3-morpholinopropoxy)-4-((2′,4,4′-trifluoro-[1,1′-biphenyl]-3-yl)amino)quinazolin-6-yl)acrylamide]
IC50 (A431 (EGFR-WT)): 479 nM | GI50 [1]: 29.3 nM | GI50 [2]: 119 nM

C=CC(=O)Nc1cc2c(Nc3ccnc(-c4ccccc4F)c3)ncnc2cc1O[C@@H]1CCN(CCOC)C1 [Example 111, (R)—N-(4-((2-(2-fluorophenyl)pyridin-4-yl)amino)-7-((1-(2-methoxyethyl)pyrrolidin-3-yl)oxy)quinazolin-6-yl)acrylamide]
IC50 (A431 (EGFR-WT)): 84.6 nM | GI50 [1]: 1.8 nM | GI50 [2]: 3.4 nM

C=CC(=O)Nc1cc2c(Nc3ccnc(-c4ccccc4F)c3)ncnc2cc1O[C@@H]1CCN(C2CCN(C)CC2)C1 [Example 116, (R)-N-(4-((2-(2-fluorophenyl)pyridin-4-yl)amino)-7-((1-(1-methylpiperidin-4-yl)pyrrolidin-3-yl)oxy)quinazolin-6-yl)acrylamide]
IC50 (A431 (EGFR-WT)): 142 nM | GI50 [1]: 3 nM | GI50 [2]: 3.4 nM
